The values that follow come from the supplement of paper PMC10920090.

Common to all, as to settings: 72 h
Test [1] relates to BT-474. The test can be described thus: drug sensitivity score (DSS), cell viability CellTiter-Glo; higher = more sensitive; extreme values may be limits of the assay. As for the experimental part: (§1)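 Targeted FIMM drug screen of 23 compounds at 5 concentrations over a 10,000-fold range in 384-well plates, 1250 cells/well, 72 h at 37 °C. Read-outs were CellTiter-Glo viability and CellTox Green cytotoxicity, normalised to DMSO and benzethonium chloride controls and summarised as drug sensitivity score (DSS). Cells stably transduced with shScramble or one of two shPPFIA1 constructs (shPPFIA1_1 TRCN0000002969, shPPFIA1_2 TRCN0000342514).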
A general note: Cellular ATP, detected with luciferase, serves as a proxy for viable cell number.

Test [2] concerns UT-SCC-24A. The test is described as above. The method, then:
as §1

Test [3] relates to MDA-MB-231. Kind of test: drug sensitivity score (DSS), cytotoxicity CellTox Green; higher = more cytotoxic; extreme values may be limits of the assay.
Test [4] deals with MDA-MB-231. Kind of test: drug sensitivity score (DSS), cell viability CellTiter-Glo; higher = more sensitive; extreme values may be limits of the assay.
The subject of test [5] is BT-474. The test can be described thus: drug sensitivity score (DSS), cytotoxicity CellTox Green; higher = more cytotoxic; extreme values may be limits of the assay. As for the experimental part:
as §1

The test system of test [6] is UT-SCC-24A. The description is as above. The method, then: as §1

As for `C[C@@H]1COC(Nc2ccc3ncnc(Nc4ccc(OCc5nccs5)c(Cl)c4)c3c2)=N1` [Varlitinib], the drug sensitivity score in the test with BT-474 [1] (shRNA: shPPFIA1_1) was found to be 8.2 DSS; in the test on BT-474 [1] (shRNA: shPPFIA1_2), 9.3 DSS; in the test with BT-474 [1] (shRNA: shScramble), 10.7 DSS; in the test on UT-SCC-24A [2] (shRNA: shPPFIA1_1), 10.7 DSS; in the test on UT-SCC-24A [2] (shRNA: shPPFIA1_2), 11 DSS; in the test with UT-SCC-24A [2] (shRNA: shScramble), 9 DSS. The drug sensitivity score in the test on MDA-MB-231 [3] (shRNA: shPPFIA1_1) amounted to 0.2 DSS; with MDA-MB-231 [3] (shRNA: shScramble), 0 DSS; with MDA-MB-231 [4] (shRNA: shPPFIA1_1) it was 1 DSS; in the test on MDA-MB-231 [4] (shRNA: shScramble), 21.3 DSS; in the test on BT-474 [5] (shRNA: shPPFIA1_1) it was 3.1 DSS; in the test with BT-474 [5] (shRNA: shPPFIA1_2), 4.5 DSS. Further, the drug sensitivity score was found to be 3.9 DSS in the test with BT-474 [5] (shRNA: shScramble), 10.3 DSS with UT-SCC-24A [6] (shRNA: shPPFIA1_1), 10.1 DSS in the test with UT-SCC-24A [6] (shRNA: shPPFIA1_2) and 4 DSS with UT-SCC-24A [6] (shRNA: shScramble).

Turning to `CC(=O)O[C@@]12CO[C@@H]1C[C@H](O)[C@@]1(C)C(=O)[C@H](O)C3=C(C)[C@@H](OC(=O)[C@H](O)[C@@H](NC(=O)OC(C)(C)C)c4ccccc4)C[C@@](O)([C@@H](OC(=O)c4ccccc4)[C@H]21)C3(C)C` [Docetaxel], the drug sensitivity score with BT-474 [1] (shRNA: shPPFIA1_1) is 16.1 DSS; in the test with BT-474 [1] (shRNA: shPPFIA1_2), 16.8 DSS; in the test on BT-474 [1] (shRNA: shScramble), 20.6 DSS; in the test on UT-SCC-24A [2] (shRNA: shPPFIA1_1), 17.3 DSS; in the test on UT-SCC-24A [2] (shRNA: shPPFIA1_2), 18.8 DSS; in the test with UT-SCC-24A [2] (shRNA: shScramble), 18.7 DSS. For the same compound, the drug sensitivity score with MDA-MB-231 [3] (shRNA: shPPFIA1_1) was found to be 7.3 DSS; with MDA-MB-231 [3] (shRNA: shScramble), 8.7 DSS; in the test on MDA-MB-231 [4] (shRNA: shPPFIA1_1), 1.3 DSS; in the test with MDA-MB-231 [4] (shRNA: shScramble), 16.8 DSS; with BT-474 [5] (shRNA: shPPFIA1_1), 20.1 DSS; in the test with BT-474 [5] (shRNA: shPPFIA1_2), 20.5 DSS. For the same compound, the drug sensitivity score in the test with BT-474 [5] (shRNA: shScramble) came to 20.9 DSS; with UT-SCC-24A [6] (shRNA: shPPFIA1_1), 16.2 DSS; in the test on UT-SCC-24A [6] (shRNA: shPPFIA1_2), 15.2 DSS; in the test on UT-SCC-24A [6] (shRNA: shScramble), 20.1 DSS.

Regarding `COc1cc2ncnc(Nc3ccc(F)c(Cl)c3)c2cc1OCCCN1CCOCC1` [Gefitinib], the drug sensitivity score with BT-474 [1] (shRNA: shPPFIA1_1) turned out to be 7.8 DSS; in the test on BT-474 [1] (shRNA: shPPFIA1_2), 9.1 DSS; in the test on BT-474 [1] (shRNA: shScramble) it was 10.8 DSS; with UT-SCC-24A [2] (shRNA: shPPFIA1_1), 19.6 DSS; in the test with UT-SCC-24A [2] (shRNA: shPPFIA1_2) it was 18.4 DSS; in the test with UT-SCC-24A [2] (shRNA: shScramble) it was 12.1 DSS. Further, the drug sensitivity score in the test on MDA-MB-231 [3] (shRNA: shPPFIA1_1) is 0 DSS; in the test with MDA-MB-231 [3] (shRNA: shScramble), 0 DSS; with MDA-MB-231 [4] (shRNA: shPPFIA1_1), 2.3 DSS; in the test with MDA-MB-231 [4] (shRNA: shScramble), 2.3 DSS; with BT-474 [5] (shRNA: shPPFIA1_1) it was 4.1 DSS; in the test with BT-474 [5] (shRNA: shPPFIA1_2), 5.6 DSS. The drug sensitivity score worked out at 4.8 DSS with BT-474 [5] (shRNA: shScramble), 19.4 DSS in the test with UT-SCC-24A [6] (shRNA: shPPFIA1_1), 17.3 DSS with UT-SCC-24A [6] (shRNA: shPPFIA1_2) and 8.3 DSS in the test on UT-SCC-24A [6] (shRNA: shScramble).

For `Cc1cc([C@@H](C)Nc2ccccc2C(=O)O)c2nc(N3CCOCC3)cc(=O)n2c1` [AZD-6482], the drug sensitivity score in the test with BT-474 [1] (shRNA: shPPFIA1_1) worked out at 1.5 DSS; in the test with BT-474 [1] (shRNA: shPPFIA1_2), 1.1 DSS; in the test on BT-474 [1] (shRNA: shScramble) it was 2.1 DSS; in the test on UT-SCC-24A [2] (shRNA: shPPFIA1_1), 2.1 DSS; in the test on UT-SCC-24A [2] (shRNA: shPPFIA1_2), 1.9 DSS; with UT-SCC-24A [2] (shRNA: shScramble), 1.4 DSS. For the same compound, the drug sensitivity score in the test with MDA-MB-231 [3] (shRNA: shPPFIA1_1) stood at 0 DSS; with MDA-MB-231 [3] (shRNA: shScramble) it was 0.9 DSS; with MDA-MB-231 [4] (shRNA: shPPFIA1_1), 4.2 DSS; with MDA-MB-231 [4] (shRNA: shScramble), 19.8 DSS; with BT-474 [5] (shRNA: shPPFIA1_1), 0.2 DSS; in the test on BT-474 [5] (shRNA: shPPFIA1_2) it was 0.1 DSS. Moreover, the drug sensitivity score in the test with BT-474 [5] (shRNA: shScramble) is 0.1 DSS; in the test on UT-SCC-24A [6] (shRNA: shPPFIA1_1) it was 2 DSS; with UT-SCC-24A [6] (shRNA: shPPFIA1_2), 1 DSS; in the test on UT-SCC-24A [6] (shRNA: shScramble), 0.8 DSS.

As to `CCOc1ccn(-c2ccc(F)cc2)c(=O)c1C(=O)Nc1ccc(Oc2ccnc(N)c2Cl)c(F)c1`, the drug sensitivity score in the test with BT-474 [1] (shRNA: shPPFIA1_1), with BT-474 [1] (shRNA: shPPFIA1_2), in the test with BT-474 [1] (shRNA: shScramble), in the test on UT-SCC-24A [2] (shRNA: shPPFIA1_1), with UT-SCC-24A [2] (shRNA: shPPFIA1_2) and in the test with UT-SCC-24A [2] (shRNA: shScramble) was 0 DSS each time. Moreover, the drug sensitivity score in the test on MDA-MB-231 [3] (shRNA: shPPFIA1_1) worked out at 0 DSS; in the test on MDA-MB-231 [3] (shRNA: shScramble) it was 0.9 DSS; in the test with MDA-MB-231 [4] (shRNA: shPPFIA1_1) it was 0 DSS; in the test on MDA-MB-231 [4] (shRNA: shScramble), 21 DSS; with BT-474 [5] (shRNA: shPPFIA1_1), 0 DSS; in the test on BT-474 [5] (shRNA: shPPFIA1_2), 0 DSS. Also, the drug sensitivity score in the test with BT-474 [5] (shRNA: shScramble), with UT-SCC-24A [6] (shRNA: shPPFIA1_1), with UT-SCC-24A [6] (shRNA: shPPFIA1_2) and in the test with UT-SCC-24A [6] (shRNA: shScramble) was 0 DSS throughout.
